Series [1] is described as follows: Cytotoxicity assay (MTT) on fresh spleen cells. The note with it: BALB/C, fresh spleen cells (T-lymphocytes); T-lymphocyte (mouse spleen cells), 48 h, MTT. The class given is cell-based, mice. How it is done: (§1) Supplementary Figure 62. Inhibition of the growth of T-lymphocytes by synthetic compounds 1, 31, and 41-43. […]
(§2) Bioassay for the immunosuppressive activities17
(§3) Preparation of spleen cells from mice
(§4) BALB/C mice were sacrificed and spleens were removed aseptically. A single cell suspension was prepared after cell debris and clumps were removed. Erythrocytes were lysed using ammonium chloride buffer solution. The isolated lymphocytes were washed 3 times with PBS containing 2% FBS, and were re-suspended in RPMI 1640 medium at the indicated concentration.
(§5) Fresh spleen cells ([…]) were cultured in 96-well flat plates with 200 µL of RPMI 1640 media containing 10% FBS, 100 U/mL penicillin and 100 µg/mL streptomycin in a humidified, 37 °C, 5% CO2-containing incubator for 48 h, in the presence or absence of various concentrations of the compounds. 18 µL of MTT (5 mg/mL) was added to each well at the final 5 h culture. Then 90 µ L of lysis buffer (10% SDS, 50% DMF, pH 7.2) was added to each well for 6–7 h and the absorbance values at 570 nm were read by microplate reader (Bio-Rad, Model 550). […]

Series [2] deals with ConA-induced T-lymphocyte proliferation (spleen cells from BALB/C mice). In words: T cell function assay: ConA-induced T-lymphocyte proliferation ([3H]-thymidine uptake). The class given is cell-based. The note with it: for IC50: Mus musculus, ConA (5 μg/mL)-induced T-lymphocyte proliferation, 48 h, [3H]-thymidine uptake. How it is done:
Supplementary Figure 63. Inhibition of concanavalin A (ConA)-induced
T-lymphocyte proliferation by synthetic compounds 1, 31, and 41-43.
as §2, §3
BALB/C mice were sacrificed and spleens were removed aseptically. A single cell suspension was prepared after cell debris and clumps were removed. Erythrocytes were lysed using ammonium chloride buffer solution. The isolated lymphocytes were washed 3 times with PBS containing 2% FBS, and were re-suspended in RPMI 1640 medium at the indicated concentration. […]
1 x 10^6 of fresh spleen cells were cultured for 48 h at the same conditions as mentioned above. The cultures were stimulated with 5 µg/mL of concanavalin A (ConA) to induce T cells proliferative responses. The compounds were added to cultures with indicated concentrations to test their bioactivities. Proliferation was assessed in terms of uptake of [3H]-thymidine during last 8 h culture pulsing with 25 µCi of [3H]-thymidine for each well, and then cells were harvested onto glass fiber filters by a Basic 96 harvester. The incorporated radioactivity was counted by a liquid scintillation counter (1540 MicroBeta Trilux, Perkin–Elmer Life Sciences).

For series [3], the system named is T-lymphocyte (spleen cells from BALB/C mice). Description: Cytotoxicity assay (MTT) on fresh spleen cells. The series is classed as cell-based. The note with it: synthetic vs natural periploside A. How it is done:
as §1, §2, §3, §4, §5

The test system of series [4] is T cell. On the set-up: method as in PMID 18835000, PMID 21843896. The following applies: toxicity; natural product; cited from earlier work.
Series [5] has as its system mice models. On the set-up: method as in PMID 16204471, PMID 16751252. The following applies: cited from earlier work.
In series [6] the test system is ConA-induced T cell proliferation. On the set-up: method as in PMID 18835000, PMID 21843896. The note with it: natural product, cited from earlier work.

Results on five compounds are retold here after article PMC4309423, “Total synthesis of periploside A, a unique pregnane hexasaccharide with potent immunosuppressive effects” (Nature Communications, 2015).

The structures appear in SMILES notation.

As usually defined, the CC50 is the concentration giving 50% cytotoxicity. A word on the IC50: it is the midpoint of a concentration-inhibition curve. `CO[C@H]1[C@@H](O)[C@@H](C)O[C@@H](O[C@H]2[C@@H](OC)C[C@H](O[C@H]3[C@@H](OC)C[C@H](O[C@H]4[C@@H](OC)C[C@H](O[C@@H]5[C@@H](C)O[C@]6(C[C@H]5OC)OCO[C@@H]5C[C@H](O[C@@H](C)[C@@]7(O)CCC8C9CC=C%10C[C@@H](O)CC[C@]%10(C)C9CC[C@@]87C)O[C@H](C)[C@H]5O6)O[C@@H]4C)O[C@@H]3C)O[C@@H]2C)[C@@H]1OC(C)=O` (stereo partly drawn) [C1′′-epi-periploside A (31), C1′′-epi-periploside A]: it took 1580 ± 190 nM to reach half-maximal cytotoxicity in series [1] (CC50 at 48 h). For the same compound, the IC50 in series [2] was 410 ± 150 nM.

Consider `CO[C@H]1[C@@H](O)[C@@H](C)O[C@@H](O[C@H]2[C@@H](OC)C[C@H](O[C@H]3[C@@H](OC)C[C@H](O[C@H]4[C@@H](OC)C[C@@H](O[C@@H]5[C@@H](C)O[C@@]6(C[C@H]5OC)OCO[C@@H]5C[C@H](O[C@@H](C)[C@@]7(O)CCC8C9CC=C%10C[C@@H](O)CC[C@]%10(C)C9CC[C@@]87C)O[C@H](C)[C@H]5O6)O[C@@H]4C)O[C@@H]3C)O[C@@H]2C)[C@@H]1OC(C)=O` (stereo partly drawn) [C1′′′-epi-periploside A (41), C1′′′-epi-periploside A], for which, in series [1], the CC50 at 48 h was 11400 ± 3660 nM. Besides, the IC50 in series [2] was found to be 1960 ± 430 nM.

As for `CO[C@@H]1C[C@]2(OCO[C@@H]3C[C@H](O[C@@H](C)[C@@]4(O)CCC5C6CC=C7C[C@@H](O)CC[C@]7(C)C6CC[C@@]54C)O[C@H](C)[C@H]3O2)O[C@H](C)[C@H]1O` (stereo partly shown) [Disaccharide 42], the CC50 at 48 h in series [1] was found to be 12800 ± 520 nM. The compound also returned a half-maximal inhibitory concentration (IC50) in series [2] of 6200 ± 3200 nM.

With `CO[C@@H]1C[C@]2(OCO[C@@H]3C[C@@H](O[C@@H](C)[C@@]4(O)CCC5C6CC=C7C[C@@H](O)CC[C@]7(C)C6CC[C@@]54C)O[C@H](C)[C@H]3O2)O[C@H](C)[C@H]1O` (stereo partly shown) [Disaccharide 43], the CC50 at 48 h in series [1] amounted to 27700 ± 6610 nM. Also, the IC50 in series [2] is 3700 ± 2250 nM.

With `COC1CC(OC2C(C)OC3(CC2OC)OCOC2CC(OC(C)C4(O)CCC5C6CC=C7CC(O)CCC7(C)C6CCC54C)OC(C)C2O3)OC(C)C1OC1CC(OC)C(OC2CC(OC)C(OC3OC(C)C(O)C(OC)C3OC(C)=O)C(C)O2)C(C)O1` (stereo not shown) [Periploside A (1), Periploside A], in series [3], the “toxicity against T-lymphocyte compared with the natural product” value was “similar”. This compound also returned a CC50 at 48 h in series [1] of 2100 ± 320 nM. Besides, the CC50 in series [4] was 10100 nM. Also, in series [5], the “immunosuppressive effects in mice models” value is listed as “significant”. The IC50 is 640 nM in series [6] (ConA-induced T cell proliferation) and 170 ± 40 nM in series [2]. The “inhibition of ConA-induced T cell proliferation compared with reference drugs” value in series [6] was “as potently as rapamycin and cyclosporin A”. For the same compound, the “activity against ConA-induced T-lymphocyte proliferation compared with the natural product” value in series [2] (synthetic vs natural periploside A) was “similar”.
